Results reported in EP0165696A2, “Improved transdermal dosage form” (priority 1984, dated 1985).
≈ marks a conversion by molar mass, not a printed value.

How the values were obtained:
[1] = Equilibrium solubility of active ingredients in solvents; format: physicochemical; conditions: organic solvent or mixture, 34 °C
Procedure: An exact amount of saturated solution is withdrawn into a volumetric flask while maintaining temperature. The saturated solution is diluted in suitable solvent and the content of active ingredient measured by high pressure liquid chromatography or other suitable analytical method.

[2] = In vitro penetration of drug across cadaver skin, modified Franz diffusion cell; format: in vitro ADME, human
Procedure: The rate of penetration and lag time are determined by studying in vitro the penetration of the drug across cadaver skin, hairless mouse skin or other suitable membrane.
A measured portion of each of the formulations 1A-E was applied to the surface of the cadaver skin. The appearance of drug on the dermal side was monitored quantitatively over six days.
Using formulation 2B, four skin samples from the same person were used to determine the average flux. Using formulation 2C, skin samples from four different people were used to determine the average flux.
All formulations were gelled using 6.5 percent by weight of sodium stearate.
A measured portion of each formulation,8A & B, was applied to the surface of the cadaver skin. The appearance of drug on the dermal side was monitored quantitatively over six days.

For `N=C(N)N/N=C/c1c(Cl)cccc1Cl` [Guanabenz], the solubility thermodynamic ([1]; 35/65 propylene glycol/glycerine, 35/65PG/Gly) was 21.2 mg/mL (≈ 91.7 mM), the solubility thermodynamic ([1]; 50/50 propylene glycol/glycerine, 50/50PG/Gly) was 29.4 mg/mL (≈ 127 mM) and the solubility thermodynamic ([1]; Glycerine) was 7.97 mg/mL (≈ 34.5 mM). The solubility thermodynamic ([1]; Propylene Glycol) was 47 mg/mL (≈ 203 mM).

With `C[C@]12CC[C@@H]3c4ccc(O)cc4CC[C@H]3[C@@H]1CC[C@@H]2O` [17-beta-estradiol] the “increase in rate of penetration” value ([2]; mixed solvent system compared to the pure solvents alone, cadaver skin) was 3 to 4 times.

In the case of `C#C[C@]1(O)CC[C@H]2[C@@H]3CCC4=CC(=O)CC[C@@H]4[C@H]3CC[C@@]21CC` [Levo-norgestrel], the “rate of penetration enhanced” value ([2]; levonorgestrel, by 10 weight percent of propylene glycol and glycerine combination) is reported as 2.7 times.
